In PubChem BioAssay (NCI):
Values joined by “and” are separate entries in the source; they are usually repeats but may differ in a detail not shown here. Identical values can stand only once.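 How tested: cells in 96-well plates exposed to compound for 48 hours at five concentrations. GI50 marks 50% less growth. The concentration for full growth arrest is given as TGI.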

test system: MDA-MB-468 breast; assay: NCI anticancer screen, dose series, 48 h

Compared with `COc1ccc2nc3cc(Cl)ccc3c(Nc3ccc(O)c(CN4CCCC4)c3)c2c1`, `CN1CCN(CCCOc2ccc3ncnc(Nc4ccc(Oc5cccc(F)c5)c(Cl)c4)c3c2)CC1` is 1.7-fold lower in GI50: 1850 nM for the first, 1060 nM for the second.

Going from `Cc1ccc2c(C(C[N+](=O)[O-])c3ccco3)c(-c3ccccc3)[nH]c2c1` (stereo not drawn) to `CCOC(=O)C(=Cc1c(-c2ccccc2)[nH]c2ccccc12)C(=O)OCC`, the GI50 falls from 7260 nM to 3100 nM (2.3-fold).

`NC1(C(=O)O)CSSC1` and `O=C(Nc1cccc(Cl)c1)c1cc(Cl)ccc1O` are within 1.5-fold of each other in GI50: 2100 nM for the first, 1750 nM for the second.

First: O=C1c2c(O)ccc(O)c2C(=O)c2c(NCCNCCO)ccc(NCCNCCO)c21
Second: Cc1ccc(NCCNCC(O)CO)c2c(=O)c3ccccc3sc12 (stereo not drawn)
The GI50 of the first is 17-fold lower: 83.5 nM for the first, 1390 nM for the second.

First: COC12C=C/C(=C(/C(=O)OCc3csc(SC)n3)C(=O)CCCCCCCCC3(OC)C=C/C(=C(/C(=O)OCc4cnc(SC)s4)C(=O)CCCCCCCC1)O3)O2 (stereo not drawn)
Second: COc1ccccc1-c1nccc(COc2ccccc2C[C@@H](Oc2ncnc3sc(-c4ccc(F)cc4)c(-c4ccc(OCCN5CCN(C)CC5)c(Cl)c4C)c23)C(=O)O)n1
The GI50 of the first is higher: 3560 nM for the first, < 10 nM for the second.

Compared with `COc1ccc(-c2conc2-c2ccccc2)cc1`, `COc1ccc(-c2nn(-c3cccc(Cl)c3)cc2-c2cc(-c3cccs3)no2)cc1` is 12-fold higher in GI50: 225 nM for the first, 2680 nM for the second.

First: NCCNc1nc2ccccc2c2c(=O)c3cc(F)cc(Cl)c3sc12
Second: CN(C)CCCNc1c2ccccc2nc2c1oc1ccc(Cl)cc12
The GI50 of the first is 1.6-fold lower: 1730 nM for the first, 2760 nM for the second.

First: Cc1cc([C@H](C)Nc2nccc(N3C(=O)OC[C@@H]3[C@H](C)F)n2)ncc1-c1ccnc(C(F)(F)F)c1
Second: COc1ccc(-c2nn3ncccc3c2-c2ccnc(Nc3cccc(C(F)(F)F)c3)n2)cc1
The GI50 of the first is 2.1-fold higher: 9500 nM for the first, 4620 nM for the second.

Compared with `CC(=O)c1c(Nc2ccc(F)c(F)c2F)[nH]c2c(F)cc(F)cc2c1=O`, `O=C(Nc1nc2ccc(F)cc2s1)c1cccnc1Nc1ccc(Cl)cc1Cl` is 3-fold higher in GI50: 261 nM for the first, 786 nM for the second.

First: COc1cccc(C2CC(=O)Nc3cc4c(cc32)CCC4)c1OC (stereo not drawn)
Second: COc1cc(/C=C2\C(=O)Nc3ccc(Br)cc32)cc(OC)c1OC
The GI50 of the first is 1.8-fold lower: 1830 nM for the first, 3290 nM for the second.

Going from `C#CCn1cc(C=C2C(=O)NC(=S)NC2=O)c2cc(Cl)ccc21` to `COc1ccc(-c2nn(-c3cccc(Cl)c3)cc2/C=C2\C(=N)N(c3ccccc3)N=C2N)cc1`, the GI50 rises from 2060 nM to 4150 nM (2-fold).

First: O=C1c2cc3c(cc2-c2c1c1cc(F)c(F)cc1c(=O)n2C[C@H](O)CO)OCO3
Second: O=c1c2ccccc2c(=O)c2c1sc1c(=O)c3ccc(O)cc3c(=O)c12
The GI50 of the first is 40-fold lower: 37.9 nM for the first, 1520 nM for the second.

Compared with `Oc1ccc(CSc2nnc(-c3ccc(Oc4ccccc4)cc3)n2-c2ccccc2)c2cccnc12`, `Cc1nc2cc(Nc3nc(Nc4ccc(F)cc4)nc(-c4ccc(Cl)cc4)n3)ccc2n1Cc1ccccc1` is 27-fold higher in GI50: 180 nM for the first, 4940 nM for the second.

Compared with `Cc1cc2c(-c3nc4ccccn4c3NC34CC5CC(CC(C5)C3)C4)c(O)c(O)cc2c(O)c1-c1c(C)cc2c(-c3nc4ccccn4c3NC34CC5CC(CC(C5)C3)C4)c(O)c(O)cc2c1O`, `CC(=O)OC1Oc2cc(C)c(C)cc2-c2oc(=O)c(-c3ccccc3)cc21` (stereo not drawn) is 5.6-fold higher in GI50: 143 nM for the first, 796 nM for the second.

Compared with `CCn1c(-c2nonc2N)nc2c(C#CC(C)(C)O)ncc(OC[C@@H]3CCCN3)c21`, `Cc1cc(C(=O)Nc2cc(Nc3ncccc3-c3ncnc4nc[nH]c34)ccc2F)cc(C(C)(C)C#N)c1` is 44-fold higher in GI50: 232 nM for the first, 10300 nM for the second.

Compared with `N#CC1=C(N)Oc2c(sc3c(Br)cccc23)C1c1ccc(F)cc1` (stereo not drawn), `Fc1ccc(-c2cc(-c3cn[nH]c3-c3ccccn3)ccn2)cc1` is higher in GI50: 333 nM for the first, > 25000 nM for the second.

First: NC(=O)c1cc(-c2ccc3ncnc(N4CCc5cc(F)c(Cl)cc54)c3c2)cnc1N
Second: CC(=O)Nc1ccc2c(c1)CN1C(=O)c3ccccc3C1=N2
The GI50 of the first is lower: 397 nM for the first, > 100000 nM for the second.

`Cc1cc(Nc2cc(N3CCN(C)CC3)nc(C#Cc3ccccc3)n2)n[nH]1` and `CCc1ccc(OCc2ccccc2C(=O)Nc2ccc3nc(C)cc(N)c3c2)cc1` are within 1.5-fold of each other in GI50: 1670 nM for the first, 1260 nM for the second.

`CC[C@H](C)[C@H](NC(=O)N[C@@H](C)c1ccccc1)C(=O)N(C)[C@H](C[C@@H](OC(C)=O)c1nc(C(=O)N[C@@H](Cc2ccccc2)C[C@H](C)C(=O)OC)cs1)C(C)C` and `COc1ccc(CNC(=O)c2ccc(-c3cc(-c4nnc(C)o4)ccc3C)cc2)cc1` are within 1.5-fold of each other in GI50: 3600 nM for the first, 5140 nM for the second.

First: CCCCCCCCCCCCNC(=O)[C@H]1CSC(c2ccsc2)N1 (stereo partly drawn)
Second: CCCCCCCCCCCCCCCCCCNC(=O)[C@H]1CSC(c2ccc(F)c(OC)c2)N1 (stereo partly drawn)
The GI50 of the first is 2.2-fold lower: 846 nM for the first, 1840 nM for the second.

Going from `NC(=O)c1c(NC(=O)c2cccc(C(F)(F)F)c2)sc2c1CCC(=O)C2` to `N#Cc1c(-c2ccc(Cl)cc2)csc1NC(=O)Nc1cccc(C(F)(F)F)c1`, the GI50 rises from 348 nM to 2180 nM (6.3-fold).

Molecule `Cc1ccc(S(=O)c2ccc([N+](=O)[O-])c3nonc23)cc1` (stereo not drawn) has a GI50 of 1750 nM.

`COc1ccc2nc3cc(Cl)ccc3c(Nc3ccc(O)c(CN4CCCC4)c3)c2c1` and `CN1CCN(CCCOc2ccc3ncnc(Nc4ccc(Oc5cccc(F)c5)c(Cl)c4)c3c2)CC1` are within 1.5-fold of each other in TGI: 3650 nM for the first, 2530 nM for the second.

Compared with `Cc1ccc2c(C(C[N+](=O)[O-])c3ccco3)c(-c3ccccc3)[nH]c2c1` (stereo not drawn), `CCOC(=O)C(=Cc1c(-c2ccccc2)[nH]c2ccccc12)C(=O)OCC` is 4.6-fold lower in TGI: 71200 nM for the first, 15400 nM for the second.

`NC1(C(=O)O)CSSC1` and `O=C(Nc1cccc(Cl)c1)c1cc(Cl)ccc1O` are within 1.5-fold of each other in TGI: 7890 nM for the first, 7230 nM for the second.

Compared with `O=C1c2c(O)ccc(O)c2C(=O)c2c(NCCNCCO)ccc(NCCNCCO)c21`, `Cc1ccc(NCCNCC(O)CO)c2c(=O)c3ccccc3sc12` (stereo not drawn) is 8.3-fold higher in TGI: 346 nM for the first, 2860 nM for the second.

Going from `COC12C=C/C(=C(/C(=O)OCc3csc(SC)n3)C(=O)CCCCCCCCC3(OC)C=C/C(=C(/C(=O)OCc4cnc(SC)s4)C(=O)CCCCCCCC1)O3)O2` (stereo not drawn) to `COc1ccccc1-c1nccc(COc2ccccc2C[C@@H](Oc2ncnc3sc(-c4ccc(F)cc4)c(-c4ccc(OCCN5CCN(C)CC5)c(Cl)c4C)c23)C(=O)O)n1`, the TGI falls from 61300 nM to 12.1 nM (5100-fold).

First: COc1ccc(-c2conc2-c2ccccc2)cc1
Second: COc1ccc(-c2nn(-c3cccc(Cl)c3)cc2-c2cc(-c3cccs3)no2)cc1
The TGI of the first is higher: > 100000 nM for the first, 12300 nM for the second.

Compared with `NCCNc1nc2ccccc2c2c(=O)c3cc(F)cc(Cl)c3sc12`, `CN(C)CCCNc1c2ccccc2nc2c1oc1ccc(Cl)cc12` is 3.2-fold higher in TGI: 3440 nM for the first, 11000 nM for the second.

Compared with `Cc1cc([C@H](C)Nc2nccc(N3C(=O)OC[C@@H]3[C@H](C)F)n2)ncc1-c1ccnc(C(F)(F)F)c1`, `COc1ccc(-c2nn3ncccc3c2-c2ccnc(Nc3cccc(C(F)(F)F)c3)n2)cc1` is 5.6-fold lower in TGI: 79600 nM for the first, 14100 nM for the second.

Compared with `CC(=O)c1c(Nc2ccc(F)c(F)c2F)[nH]c2c(F)cc(F)cc2c1=O`, `O=C(Nc1nc2ccc(F)cc2s1)c1cccnc1Nc1ccc(Cl)cc1Cl` is 26-fold higher in TGI: 789 nM for the first, 20200 nM for the second.

First: COc1cccc(C2CC(=O)Nc3cc4c(cc32)CCC4)c1OC (stereo not drawn)
Second: COc1cc(/C=C2\C(=O)Nc3ccc(Br)cc32)cc(OC)c1OC
The TGI of the first is lower: 5450 nM for the first, > 100000 nM for the second.

Going from `C#CCn1cc(C=C2C(=O)NC(=S)NC2=O)c2cc(Cl)ccc21` to `COc1ccc(-c2nn(-c3cccc(Cl)c3)cc2/C=C2\C(=N)N(c3ccccc3)N=C2N)cc1`, the TGI rises from 5080 nM to 45800 nM (9-fold).

Going from `O=C1c2cc3c(cc2-c2c1c1cc(F)c(F)cc1c(=O)n2C[C@H](O)CO)OCO3` to `O=c1c2ccccc2c(=O)c2c1sc1c(=O)c3ccc(O)cc3c(=O)c12`, the TGI rises from 206 nM to 4000 nM (19-fold).

Compared with `Oc1ccc(CSc2nnc(-c3ccc(Oc4ccccc4)cc3)n2-c2ccccc2)c2cccnc12`, `Cc1nc2cc(Nc3nc(Nc4ccc(F)cc4)nc(-c4ccc(Cl)cc4)n3)ccc2n1Cc1ccccc1` is 13-fold higher in TGI: 6810 nM for the first, 88000 nM for the second.

First: Cc1cc2c(-c3nc4ccccn4c3NC34CC5CC(CC(C5)C3)C4)c(O)c(O)cc2c(O)c1-c1c(C)cc2c(-c3nc4ccccn4c3NC34CC5CC(CC(C5)C3)C4)c(O)c(O)cc2c1O
Second: CC(=O)OC1Oc2cc(C)c(C)cc2-c2oc(=O)c(-c3ccccc3)cc21 (stereo not drawn)
The TGI of the first is 28-fold lower: 1570 nM for the first, 43900 nM for the second.

Compared with `CCn1c(-c2nonc2N)nc2c(C#CC(C)(C)O)ncc(OC[C@@H]3CCCN3)c21`, `Cc1cc(C(=O)Nc2cc(Nc3ncccc3-c3ncnc4nc[nH]c34)ccc2F)cc(C(C)(C)C#N)c1` is higher in TGI: 7190 nM for the first, > 100000 nM for the second.

Compared with `N#CC1=C(N)Oc2c(sc3c(Br)cccc23)C1c1ccc(F)cc1` (stereo not drawn), `Fc1ccc(-c2cc(-c3cn[nH]c3-c3ccccn3)ccn2)cc1` is higher in TGI: 6410 nM for the first, > 25000 nM for the second.

Going from `NC(=O)c1cc(-c2ccc3ncnc(N4CCc5cc(F)c(Cl)cc54)c3c2)cnc1N` to `CC(=O)Nc1ccc2c(c1)CN1C(=O)c3ccccc3C1=N2`, the TGI rises from 2040 nM to > 100000 nM.

Compared with `Cc1cc(Nc2cc(N3CCN(C)CC3)nc(C#Cc3ccccc3)n2)n[nH]1`, `CCc1ccc(OCc2ccccc2C(=O)Nc2ccc3nc(C)cc(N)c3c2)cc1` is 2.3-fold lower in TGI: 6530 nM for the first, 2800 nM for the second.

`CC[C@H](C)[C@H](NC(=O)N[C@@H](C)c1ccccc1)C(=O)N(C)[C@H](C[C@@H](OC(C)=O)c1nc(C(=O)N[C@@H](Cc2ccccc2)C[C@H](C)C(=O)OC)cs1)C(C)C` and `COc1ccc(CNC(=O)c2ccc(-c3cc(-c4nnc(C)o4)ccc3C)cc2)cc1` are within 1.5-fold of each other in TGI: 24900 nM for the first, 21400 nM for the second.

Going from `CCCCCCCCCCCCNC(=O)[C@H]1CSC(c2ccsc2)N1` (stereo partly drawn) to `CCCCCCCCCCCCCCCCCCNC(=O)[C@H]1CSC(c2ccc(F)c(OC)c2)N1` (stereo partly drawn), the TGI rises from 1630 nM to > 50000 nM.

Compared with `NC(=O)c1c(NC(=O)c2cccc(C(F)(F)F)c2)sc2c1CCC(=O)C2`, `N#Cc1c(-c2ccc(Cl)cc2)csc1NC(=O)Nc1cccc(C(F)(F)F)c1` is 2.9-fold higher in TGI: 2900 nM for the first, 8270 nM for the second.

With `Cc1ccc(S(=O)c2ccc([N+](=O)[O-])c3nonc23)cc1` (stereo not drawn) the TGI was 3650 nM.

In the case of `Oc1cccc(-c2nc(N3CCOCC3)c3oc4ncccc4c3n2)c1`, the GI50 was 576 nM and 375 nM.

With `Oc1cccc(-c2nc(N3CCOCC3)c3oc4ncccc4c3n2)c1` the TGI was 2370 nM and 2150 nM.
